For the first assay, the system named is coxsackie B virus strain 2. As to the kind of experiment: CPE inhibition in mammalian cell culture, Cox-B2. The assay is classed as cell-based. Particulars: read-out: % inh.
Turning to `COc1ccc(CCNc2cc(C)nc3c(-c4ccc(C)cc4)cnn23)cc1OC` [Ex. 29, N-[2-(3,4-dimethoxyphenyl)ethyl]-5-methyl-3-(p-tolyl)pyrazolo[1,5-a]pyrimidin-7-amine], the inhibition at 10 µM worked out at 62%. Take `COc1ccc(Nc2cc(C)nc3c(-c4ccc(OC)c(OC)c4)c(C)nn23)cc1` [Ex. 49, 3-(3,4-dimethoxyphenyl)-N-(4-methoxyphenyl)-2,5-dimethyl-pyrazolo[1,5-a]pyrimidin-7-amine]: the inhibition at 1 µM was found to be 80%. In the case of `COc1ccc(-c2c(C)nn3c(NCc4cccnc4)cc(C)nc23)cc1` [Ex. 65, 3-(4-methoxyphenyl)-2,5-dimethyl-N-(3-pyridylmethyl)pyrazolo[1,5-a]pyrimidin-7-amine], the inhibition at 1 µM was 91%. As for `COc1ccc(CCNc2cc(C)nc3c(-c4ccccc4)cnn23)cc1OC` [Ex. 22, N-[2-(3,4-dimethoxyphenyl)ethyl]-5-methyl-3-phenyl-pyrazolo[1,5-a]pyrimidin-7-amine], the inhibition at 10 µM was determined as 44%.

As to `Cc1cc(NCCc2ccccc2)n2ncc(-c3ccc(Cl)cc3)c2n1` [Ex. 26, 3-(4-chlorophenyl)-5-methyl-N-phenethyl-pyrazolo[1,5-a]pyrimidin-7-amine], the inhibition at 10 µM amounted to 30%.

For `Cc1cc(NCc2cccnc2)n2nc(C)c(-c3cccs3)c2n1` [Ex. 69, 2,5-dimethyl-N-(3-pyridylmethyl)-3-(2-thienyl)pyrazolo[1,5-a]pyrimidin-7-amine], the inhibition at 10 µM came out at 65%. Still for that read-out and setting: the same measure for `COc1ccc(-c2c(C)nn3c(Nc4ccc(Cl)c(Cl)c4)cc(C)nc23)cc1OC` [Ex. 59, N-(3,4-dichlorophenyl)-3-(3,4-dimethoxyphenyl)-2,5-dimethyl-pyrazolo[1,5-a]pyrimidin-7-amine]: 88%; for `Cc1cc(NCc2ccccn2)n2nc(C)c(-c3ccc(F)cc3)c2n1` [Ex. 37, 3-(4-fluorophenyl)-2,5-dimethyl-N-(2-pyridylmethyl)pyrazolo[1,5-a]pyrimidin-7-amine]: 78%. For the molecule `COc1ccc(-c2c(C)nn3c(NCCc4ccncc4)cc(C)nc23)cc1OC` [Ex. 89, 3-(3,4-dimethoxyphenyl)-2,5-dimethyl-N-[2-(4-pyridyl)ethyl]pyrazolo[1,5-a]pyrimidin-7-amine], the inhibition at 1 µM came out at 100%.

The next assay relates to Ljungan virus strain 145. As to the kind of experiment: CPE inhibition in mammalian cell culture, LV145. Format: cell-based. Particulars: Parechovirus B; LV145, Conc. 10.0 μM.
Molecule `Cc1cc(NC(C)c2ccccc2)n2nc(C)c(-c3ccc(F)cc3)c2n1` (stereo not drawn) [Ex. 17, 3-(4-fluorophenyl)-2,5-dimethyl-N-(1-phenylethyl)pyrazolo[1,5-a]pyrimidin-7-amine] gave an inhibition at 10 µM of 75%.

For the molecule `CCc1nn2c(NCCCn3ccnc3)cc(C)nc2c1-c1ccccc1` [Ex. 31, 2-ethyl-N-(3-imidazol-1-ylpropyl)-5-methyl-3-phenyl-pyrazolo[1,5-a]pyrimidin-7-amine], the inhibition at 10 µM was determined as 14%. Same read-out and setting: the same measure for `COc1ccc(-c2c(C)nn3c(Nc4ccc(Br)cc4)cc(C)nc23)cc1OC` [Ex. 46, N-(4-bromophenyl)-3-(3,4-dimethoxyphenyl)-2,5-dimethyl-pyrazolo[1,5-a]pyrimidin-7-amine]: 92%.

The test system of a further assay is polio virus strain 1. As to the kind of experiment: organism not typed. Format: cell-based. Particulars: read-out: % inh.
As to `CCOc1ccc(Nc2cc(C)nc3c(-c4ccc(OC)c(OC)c4)c(C)nn23)cc1` [Ex. 54, 3-(3,4-dimethoxyphenyl)-N-(4-ethoxyphenyl)-2,5-dimethyl-pyrazolo[1,5-a]pyrimidin-7-amine], the inhibition at 1 µM worked out at 89%. As for `Cc1cc(NCc2ccccc2)n2ncc(-c3ccccc3)c2n1` [Ex. 21, N-benzyl-5-methyl-3-phenyl-pyrazolo[1,5-a]pyrimidin-7-amine], the inhibition at 10 µM worked out at 78%. On to `CCCCc1ccc(Nc2cc(C)nc3c(-c4ccc(OC)c(OC)c4)c(C)nn23)cc1` [Ex. 63, N-(4-butylphenyl)-3-(3,4-dimethoxyphenyl)-2,5-dimethyl-pyrazolo[1,5-a]pyrimidin-7-amine], for which the inhibition at 1 µM was 87%. For the molecule `Cc1cc(NCc2cccnc2)n2nc(C)c(-c3ccccc3)c2n1` [Ex. 39, 2,5-dimethyl-3-phenyl-N-(3-pyridylmethyl)pyrazolo[1,5-a]pyrimidin-7-amine], the inhibition at 1 µM amounted to 71%. Still for that read-out and setting: with `COc1ccc(-c2c(C)nn3c(Nc4cccc(C)c4)cc(C)nc23)cc1OC` [Ex. 50, 3-(3,4-dimethoxyphenyl)-2,5-dimethyl-N-(m-tolyl)pyrazolo[1,5-a]pyrimidin-7-amine] the figure was 81%. On the same count and under the same terms, with `COc1ccc(-c2c(C)nn3c(NCCCn4ccnc4)cc(C)nc23)cc1` [Ex. 67, N-(3-imidazol-1-ylpropyl)-3-(4-methoxyphenyl)-2,5-dimethyl-pyrazolo[1,5-a]pyrimidin-7-amine] the figure was 63%. As for `Cc1cc(NCCCn2ccnc2)n2nc(C)c(-c3cccs3)c2n1` [Ex. 71, N-(3-imidazol-1-ylpropyl)-2,5-dimethyl-3-(2-thienyl)pyrazolo[1,5-a]pyrimidin-7-amine], the inhibition at 10 µM amounted to 72%. `COc1ccc(-c2c(C)nn3c(Nc4ccc(NC(C)=O)cc4)cc(C)nc23)cc1OC` [Ex. 58, N-[4-[[3-(3,4-dimethoxyphenyl)-2,5-dimethyl-pyrazolo[1,5-a]pyrimidin-7-yl]amino]phenyl]acetamide]: the inhibition at 0.1 µM was determined as 74%. For the molecule `COc1ccc(CCNc2cc(C)nc3c(-c4ccc(Cl)cc4)cnn23)cc1OC` [Ex. 27, 3-(4-chlorophenyl)-N-[2-(3,4-dimethoxyphenyl)ethyl]-5-methyl-pyrazolo[1,5-a]pyrimidin-7-amine], the inhibition at 10 µM was 35%. With `Cc1cc(NCc2ccccn2)n2nc(C)c(-c3ccc(Cl)cc3)c2n1` [Ex. 42, 3-(4-chlorophenyl)-2,5-dimethyl-N-(2-pyridylmethyl)pyrazolo[1,5-a]pyrimidin-7-amine], the inhibition at 1 µM amounted to 96%. Consider `Cc1cc(NCc2ccccc2)n2ncc(-c3ccc(F)cc3)c2n1` [Ex. 18, N-benzyl-3-(4-fluorophenyl)-5-methyl-pyrazolo[1,5-a]pyrimidin-7-amine], for which the inhibition at 10 µM turned out to be 51%. As for `CCOc1ccc(-c2c(C)nn3c(NCc4ccc(F)cc4)cc(C)nc23)cc1OCC` [Ex. 109, 3-(3,4-diethoxyphenyl)-N-[(4-fluorophenyl)methyl]-2,5-dimethyl-pyrazolo[1,5-a]pyrimidin-7-amine], the inhibition at 1 µM came out at 88%. Turning to `Cc1cc(NCc2ccncc2)n2nc(C)c(-c3cccs3)c2n1` [Ex. 70, 2,5-dimethyl-N-(4-pyridylmethyl)-3-(2-thienyl)pyrazolo[1,5-a]pyrimidin-7-amine], the inhibition at 10 µM was determined as 89%. The same measure, in the same setting: with `COc1ccc(CCNc2cc(C)nc3c(-c4ccc(F)cc4)c(C)nn23)cc1OC` [Ex. 15, N-[2-(3,4-dimethoxyphenyl)ethyl]-3-(4-fluorophenyl)-2,5-dimethyl-pyrazolo[1,5-a]pyrimidin-7-amine] the figure was 75%; with `Cc1ccc(CCNc2cc(C)nc3c(-c4ccc(Cl)cc4)c(C)nn23)cc1` [Ex. 32, 3-(4-chlorophenyl)-2,5-dimethyl-N-[2-(p-tolyl)ethyl]pyrazolo[1,5-a]pyrimidin-7-amine], 25%. The same measure, in the same setting: with `Cc1cc(NCCc2ccccc2)n2nc(C)c(-c3ccc(F)cc3)c2n1` [Ex. 14, 3-(4-fluorophenyl)-2,5-dimethyl-N-phenethyl-pyrazolo[1,5-a]pyrimidin-7-amine] the figure was 73%. As for `CC(C)(C)c1cc(NCCCn2ccnc2)n2ncc(-c3ccccc3)c2n1` [Ex. 23, 5-tert-butyl-N-(3-imidazol-1-ylpropyl)-3-phenyl-pyrazolo[1,5-a]pyrimidin-7-amine], the inhibition at 10 µM was found to be 94%. In the case of `COc1ccc(-c2c(C)nn3c(Nc4ccc(C)cc4)cc(C)nc23)cc1OC` [Ex. 48, 3-(3,4-dimethoxyphenyl)-2,5-dimethyl-N-(p-tolyl)pyrazolo[1,5-a]pyrimidin-7-amine], the inhibition at 1 µM was found to be 79%. In the case of `Cc1cc(NCCCn2ccnc2)n2ncc(-c3ccc(Cl)cc3)c2n1` [Ex. 28, 3-(4-chlorophenyl)-N-(3-imidazol-1-ylpropyl)-5-methyl-pyrazolo[1,5-a]pyrimidin-7-amine], the inhibition at 10 µM was 72%.

Turning to `Cc1cc(NCCCn2ccnc2)n2nc(C)c(-c3ccc(Cl)cc3)c2n1` [Ex. 44, 3-(4-chlorophenyl)-N-(3-imidazol-1-ylpropyl)-2,5-dimethyl-pyrazolo[1,5-a]pyrimidin-7-amine], the inhibition at 1 µM came to 70%. For the molecule `COc1ccc(-c2c(C)nn3c(Nc4cc(Cl)cc(Cl)c4)cc(C)nc23)cc1OC` [Ex. 64, N-(3,5-dichlorophenyl)-3-(3,4-dimethoxyphenyl)-2,5-dimethyl-pyrazolo[1,5-a]pyrimidin-7-amine], the inhibition at 1 µM was 20%. For `COc1ccc(-c2c(C)nn3c(Nc4ccc(F)cc4)cc(C)nc23)cc1OC` [Ex. 53, 3-(3,4-dimethoxyphenyl)-N-(4-fluorophenyl)-2,5-dimethyl-pyrazolo[1,5-a]pyrimidin-7-amine], the inhibition at 10 µM worked out at 84%. For `COc1ccc(-c2c(C)nn3c(NCc4ccncc4)cc(C)nc23)cc1` [Ex. 66, 3-(4-methoxyphenyl)-2,5-dimethyl-N-(4-pyridylmethyl)pyrazolo[1,5-a]pyrimidin-7-amine], the inhibition at 0.01 µM was 100%. On to `CCc1ccc(Nc2cc(C)nc3c(-c4ccc(OC)c(OC)c4)c(C)nn23)cc1` [Ex. 62, 3-(3,4-dimethoxyphenyl)-N-(4-ethylphenyl)-2,5-dimethyl-pyrazolo[1,5-a]pyrimidin-7-amine], for which the inhibition at 1 µM was determined as 97%.

`CCCc1cc(NCCCn2ccnc2)n2nc(C)c(-c3ccccc3)c2n1` [Ex. 24, N-(3-imidazol-1-ylpropyl)-2-methyl-3-phenyl-5-propyl-pyrazolo[1,5-a]pyrimidin-7-amine]: the inhibition at 10 µM stood at 86%. On to `COC(=O)c1ccc(-c2c(C)nn3c(NCc4ccc(F)cc4)cc(C)nc23)cc1` [Ex. 107, methyl 4-[7-[(4-fluorophenyl)methylamino]-2,5-dimethyl-pyrazolo[1,5-a]pyrimidin-3-yl]benzoate], for which the inhibition at 1 µM came to 21%.

`COc1ccc(-c2c(C)nn3c(NCc4ccnc(C)n4)cc(C)nc23)cc1OC` [Ex. 87, 3-(3,4-dimethoxyphenyl)-2,5-dimethyl-N-[(2-methylpyrimidin-4-yl)methyl]pyrazolo[1,5-a]pyrimidin-7-amine]: the inhibition at 0.1 µM is 100%.

The values above are taken from US9963455B2, “Pyrazolo[1,5-a]pyrimidines as antiviral compounds” (Curovir AB, priority 2014, dated 2018).
